Data set [1] has as its system C57BL/6J mice. Put plainly: IPGTT in normal C57BL/6J mice. As to conditions: normal wild type C57BL/6J mice, same doses as db/db mice (5 mg/kg/day intraperitoneal, 2 weeks). The class given is in vivo. The procedure:
(§1) Male C57BL/6J and C57BL/KsJ-db/db mice were purchased from Japan SLC. HET0016 (5 mg/kg/day) and clofibrate (400 mg/kg/day) were injected intraperitoneally into eight (8)-week-old mice for two (2) weeks. Control littermate mice for HET0016 were treated with DMSO, while control littermate mice for clofibrate were treated with corn oil. Intraperitoneal glucose tolerance test (IPGTT) was performed after overnight fasting followed by intraperitoneal injection of lg/kg of glucose dissolved in PBS. The concentrations of blood glucose were measured using a One Touch Ultra glucometer (LifeScan, Inc.) before (0 min) and at 15, 30, 60, 90 and 120 min. after glucose injection. Livers isolated from 10-week-old mice were fixed in 10% neutral buffered formalin solution (Sigma), and paraffin sections were stained with hematoxylin-eosin.

The subject of data set [2] is C57BL/6J mice. Put plainly: Liver triglyceride (TG) level in C57BL/6J mice. To be noted: normal wild type C57BL/6J mice, 5 mg/kg/day intraperitoneal, 2 weeks. The class given is in vivo. The protocol: (§2) While the mice were sacrificed, their blood was obtained with their hearts being punctured. The concentration of serum insulin was determined by using a commercial mouse serum insulin ELISA kit (Shibayagi Co., Ltd.) according to the manufacturer's instructions. Lipid peroxidation was measured by using OxiSelect™ TBARS Assay Kit (Cell Biolabs, Inc.) to quantify malondialdehyde (MDA), a natural by-product of lipid peroxidation in the liver homogenates. The level of triglyceride in the mice livers was measured by using Triglyceride Quantification Kit (Abcam).

Data set [3] has as its system insulin receptor (IR) and Akt. Kind of data set: In vivo insulin signaling (phosphorylation of IR and Akt) in liver of db/db mice. To be noted: 5 mg/kg/day intraperitoneal, 2 weeks. The procedure:
as §1
Proteins were denatured at 95° C., and separated by SDS-PAGE, followed by electroblotting on a membrane made of nitrocellulose (NC) or polyvinylidene difluoride (PVDF). After blocking in TBST (Tris-buffered Saline, 0.1% Tween-20) containing 5% non-fat milk (skim milk) or 5% bovine serum albumin (BSA), the membrane was incubated with labeled primary antibodies. […] Protein blots were detected by using ECL kit and visualized by a luminescence imaging analyzer of LAS-4000 mini system and software (FujiFilm). […]

Data set [4] relates to db/db mice. Kind of data set: Serum insulin ELISA in db/db mice. The class given is in vivo. As to conditions: 5 mg/kg/day intraperitoneal, 2 weeks. The protocol:
as §2

Data set [5] deals with cleaved Caspase-3 and -9, Bax and Bcl-2. Put plainly: Apoptosis markers by Western blotting in liver of db/db mice. The class given is in vivo. To be noted: 5 mg/kg/day intraperitoneal, 2 weeks. The procedure: as §1
(§3) Proteins were denatured at 95° C., and separated by SDS-PAGE, followed by electroblotting on a membrane made of nitrocellulose (NC) or polyvinylidene difluoride (PVDF). After blocking in TBST (Tris-buffered Saline, 0.1% Tween-20) containing 5% non-fat milk (skim milk) or 5% bovine serum albumin (BSA), the membrane was incubated with labeled primary antibodies. Subsequently, the membrane was washed with TBST and further incubated with secondary antibodies coupled with horseradish peroxides. Protein blots were detected by using ECL kit and visualized by a luminescence imaging analyzer of LAS-4000 mini system and software (FujiFilm). Following antibodies were utilized: mouse anti-β-actin (sc-47778), rabbit anti-CYP4A (sc-98988, Santa Cruz Biotechnology), mouse anti-ATF6 (IMG-273, Imgenex), mouse anti-eIF2α (ab5369), rabbit anti-phospho-eIF2α Ser51 (ab32157), rabbit anti-IRE1 (ab37073, Abcam), rabbit anti-PERK(#3192), rabbit anti-phospho-PERK Thr980 (#3179), rabbit anti-BiP (#3177), mouse anti-CHOP (#2895), rabbit anti-SAPK/JNK (#9252), rabbit anti-phospho-SAPK/JNK […] (#9251), rabbit anti-Insulin receptor β (#3025), rabbit anti-phospho-Insulin receptor β Tyr1150/1151 (#3024), rabbit anti-Akt (#4691), rabbit anti-phospho-Akt Ser473 (#4060), rabbit anti-Bcl-2 (#2876), rabbit anti-Bax (#2772), rabbit anti-divided caspase-3 (#9664), rabbit anti-divided caspase-9 (#9509), rabbit anti-Bax (#2772, Cell Signaling Technology), rabbit anti-ERP72 (obtained from Dr. O. Y. Kwon, College of Medicine, Chungnam National University).
In general terms: Immunoblotting shows a protein as a band on a membrane.

Data set [6] concerns C57BL/6J mice. Kind of data set: Serum insulin ELISA in normal C57BL/6J mice. The class given is in vivo. As to conditions: normal wild type C57BL/6J mice, 5 mg/kg/day intraperitoneal, 2 weeks. The procedure:
as §2
Background: In an ELISA, binding on a coated surface is turned into a signal by an enzyme label.

The test system of data set [7] is ER stress markers (PERK, phospho-eIF2α, CHOP, phospho-JNK). Put plainly: Western blotting of ER stress markers in liver tissues of db/db mice. The class given is in vivo. As to conditions: 5 mg/kg/day intraperitoneal, 2 weeks. The protocol: as §1
Liver microsomes were prepared from fresh mice livers by applying a slight modification to the above described methods. Separated livers were thoroughly sprinkled with 1.15% KCl solution. Subsequently, the livers were homogenized with 4 times volume of a homogenizing buffer (0.1 M Tris-HCl, pH 7.4; 0.1 M KCl; […], pH 7.5; 25 μM butylated hydroxyltoluene). In order to remove un-destructed cells, nuclei and mitochondria, the obtained homogenate was centrifuged in a low-powered centrifugation (1,000× g, 4° C. for 15 min.) The obtained supernatant was then centrifuged in a higher powered centrifugation (100,000× g, 4° C. for 60 min.), resulting in the precipitation of microsomes. Pellets of compactly packed microsomes were re-suspended in 3 ml of an ice-cooled pyrophosphate buffer (0.1 M potassium pyrophosphate; 1 mM EDTA, pH 7.5; 20 μM butylated hydroxyltoluene) by using a homogenizer, followed by further centrifugation at 100,000× g, 4° C. for 60 min. The washed microsome pellets were finally suspended in 2 ml of an ice-cooled microsome buffer (10 mM Tris-HCl, pH 7.4; 1 mM EDTA, pH 7.5; 20% glycerol).
Proteins were denatured at 95° C., and separated by SDS-PAGE, followed by electroblotting on a membrane made of nitrocellulose (NC) or polyvinylidene difluoride (PVDF). After blocking in TBST (Tris-buffered Saline, 0.1% Tween-20) containing 5% non-fat milk (skim milk) or 5% bovine serum albumin (BSA), the membrane was incubated with labeled primary antibodies. Subsequently, the membrane was washed with TBST and further incubated with secondary antibodies coupled with horseradish peroxides. Protein blots were detected by using ECL kit and visualized by a luminescence imaging analyzer of LAS-4000 mini system and software (FujiFilm). […]

Data set [8] concerns db/db mice. Put plainly: TBARS assay of MDA formation (lipid peroxidation) in liver of db/db mice. The class given is in vivo. To be noted: 5 mg/kg/day intraperitoneal, 2 weeks. The procedure: as §2
Data set [9] concerns db/db mice. Kind of data set: Level of blood glucose following 6 hours' fasting in db/db mice. The class given is in vivo. To be noted: 5 mg/kg/day intraperitoneal, 2 weeks. The protocol: as §1, with “Intraperitoneal glucose tolerance test (IPGTT) was performed after overnight fasting followed by intraperitoneal injection of lg/kg of glucose dissolved in PBS.” left out
For data set [10], the system named is db/db mice. Put plainly: Liver tissue sections, hematoxylin-eosin staining, db/db mice. As to conditions: 5 mg/kg/day intraperitoneal, 2 weeks. The class given is in vivo. The protocol:
as §1

Data set [11] has as its system db/db mice. Put plainly: Intraperitoneal glucose tolerance test (IPGTT) in db/db mice. The class given is in vivo. To be noted: 5 mg/kg/day intraperitoneal, 2 weeks, 1 g/kg glucose. The procedure: as §1
The subject of data set [12] is human hepatoma HepG2 cells. Kind of data set: Tunicamycin-induced ER stress in HepG2 cells, Western blotting. As to conditions: 4 μg/ml tunicamycin, combined treatment HET0016, 6 hours. The class given is cell-based. The protocol: HepG2 cells were cultured in a Dulbecco's Modified Eagle Medium (DMEM, Gibco) Low Glucose supplemented with heat-inactivated 10% fetal bovine serum (FBS) and antibiotics at 37° C. in the presence of 5% moisturized CO2 and 95% air. The above cells were plated in a concentration of 3×10^4 cells/cm^2 and maintained in the cell culture medium for 24 hours prior to the following chemical processing. […] As a control, HepG2 cells were treated with DMSO.
as §3

Data set [13] deals with C57BL/6J mice. Kind of data set: Liver tissue sections, hematoxylin-eosin staining, C57BL/6J mice. The class given is in vivo. To be noted: normal wild type C57BL/6J mice, 5 mg/kg/day intraperitoneal, 2 weeks. The procedure: as §1

In the case of `CCCCc1ccc(N=CNO)c(C)c1` [HET0016, N-hydroxy-N′-(4-butyl-2-methylphenyl)-formamidine], in the data set with C57BL/6J mice [1], the “insulin resistance (IPGTT)” value is listed as “not altered”. In the data set on C57BL/6J mice [2], the “hepatic steatosis (level of TG)” value was “no differences”. Also, in data set [3], the “phosphorylation of Akt” value is on record as “increased” and the “phosphorylation of insulin receptor (IR)” value was “increased”. For the same compound, the “level of serum insulin” value in the data set on db/db mice [4] is on record as “notably reduced”. In addition, in [5], the “apoptosis of the diabetic liver tissues” value is recorded as “inhibited”; the “expression of Bax” value is on record as “suppressed”; the “expression of Bcl-2” value is “increased”; the “level of active forms of caspase-3 and -9” value is reported as “reduced”. The serum insulin level result with C57BL/6J mice [6] is “no differences”. In data set [7], the “activation of JNK” value is reported as “markedly decreased”; the “activity of PERK downstream signaling (phosphorylation status of eIF2α, expression level of CHOP)” value is recorded as “reduced”; the “expression of Cyp4a” value was “not changed”; the “expression of PERK” value is listed as “reduced”. The “increase of hepatic lipid peroxidation (MDA)” value in the data set on db/db mice [8] was “notably reduced”. Also, the “level of blood glucose” value in the data set on db/db mice [9] is on record as “decreased”. Moreover, in the data set on db/db mice [10], the severe hepatic steatosis entry was “relieved”. The “insulin resistance (IPGTT)” value in the data set with db/db mice [11] is “significantly improved”. Besides, in [12], the “expression of PERK” value is “remarkably down-regulate”, the “expression of phospho-JNK” value is listed as “remarkably down-regulate” and the “expression of phospho-eIF2α” value is “remarkably down-regulate”. Also, the “hepatic physiology (liver sections)” value in the data set with C57BL/6J mice [13] was “no differences”.

The values above are taken from patent publication US9295667B2, “Pharmaceutical composition for preventing or treating diabetes or fatty liver containing a CYP4A inhibitor as an active ingredient” (Korea Basic Science Institute, priority 2011, dated 2016).
